Assay results taken from ChEMBL document CHEMBL1147774, “Synthesis of N-benzylated-2-aminoquinolines as ligands for the Tec SH3 domain” (Bioorg Med Chem Lett, 2006).

target: T1, Tyrosine-protein kinase Tec (Homo sapiens, UniProt P42680); assay: Binding affinity to Tec SH3 domain
T1 sequence (P42680 whole entry): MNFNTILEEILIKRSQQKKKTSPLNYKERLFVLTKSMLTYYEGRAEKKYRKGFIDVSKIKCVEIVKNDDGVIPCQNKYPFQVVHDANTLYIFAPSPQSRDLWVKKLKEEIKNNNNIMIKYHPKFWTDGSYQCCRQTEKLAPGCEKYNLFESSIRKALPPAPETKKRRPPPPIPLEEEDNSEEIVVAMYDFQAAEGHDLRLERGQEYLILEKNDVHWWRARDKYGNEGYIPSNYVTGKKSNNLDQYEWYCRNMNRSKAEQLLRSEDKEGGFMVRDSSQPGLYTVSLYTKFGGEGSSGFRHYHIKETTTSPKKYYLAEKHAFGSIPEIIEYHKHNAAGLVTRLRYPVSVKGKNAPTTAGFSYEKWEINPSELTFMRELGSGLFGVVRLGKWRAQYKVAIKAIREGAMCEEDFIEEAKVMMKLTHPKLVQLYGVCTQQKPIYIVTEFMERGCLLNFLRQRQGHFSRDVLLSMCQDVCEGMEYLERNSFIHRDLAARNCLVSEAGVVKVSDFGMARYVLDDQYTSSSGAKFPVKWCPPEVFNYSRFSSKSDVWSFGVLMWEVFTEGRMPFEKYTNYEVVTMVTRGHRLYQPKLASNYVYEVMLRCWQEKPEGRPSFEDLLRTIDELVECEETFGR

SMILES | Kd [µM]
Oc1cccc(CNc2ccc3ccccc3n2)c1 | 234
Fc1ccccc1CNc1ccc2ccccc2n1 | 208
c1ccc(CNc2ccc3ccccc3n2)cc1 | 193
c1c[nH]c(CNc2ccc3ccccc3n2)c1 | 285
Oc1ccc(CNc2ccc3ccccc3n2)cc1 | 292
Fc1cccc(CNc2ccc3ccccc3n2)c1 | 177
